Tests used:
[1] = system: pS6S235/236; assay: Electroporation into HeLa cells, western blot quantification; type: cell-based, human; conditions: for pS6 mean fold change: mean of cell lysates
Procedure: (§1) HeLa cells were obtained from the American Type Culture Collection (ATCC) and were cultured in DMEM medium (Gibco) supplemented with 10% fetal bovine serum (FBS) (PAN-Biotech) and 1% penicillin/streptomycin (Gibco). Cells were cultured in a humidified incubator at 37 °C in the presence of 5% CO2. The identity of the cells was validated by STR profiling and the cells were tested negative for mycoplasma contamination.
(§2) Electroporation of full-length KRas constructs (KRasWT, KRasG13C, KRasG13C-edaGDP, KRasG13C:acetyledaGDP and KRasG13C-edaGppCp) was performed based on the protocol described by [Alex et al., 2019] using the Neon Transfection System Kit (Thermo Fisher). For electroporation, 3 million cells per experiment were harvested by trypsinization, washed with PBS, and resuspended in 85 µL of the electroporation buffer R (Thermo Fisher). Increasing amounts of recombinant protein samples for each construct (0, 50, 100, 200 and 300 µg) were diluted 1:1 in buffer R followed by the addition of 30 µL of this protein master mix to the cell suspension. This cellular slurry was loaded into a […] Neon Pipette Tip (Thermo Fisher) and electroporated with 2x35 ms pulses at 1000 V. After electroporation, the cells were washed twice with PBS (15 mL) to remove non-internalized extracellular protein and the cell pellet was resuspended in 2 mL complete growth media. Cells were transferred into six-well tissue culture plates (Sarstedt) and incubated for 24 hr at 37 °C and 5% CO2 in a humidified incubator for recovery before being processed for western blotting analysis.
(§3) After recovery of the electroporation, cells were washed twice with ice-cold PBS and lysed in 100 µL of phosphatase and protease inhibitor containing RIPA buffer (Cell Signaling Technology). Cells were incubated on ice for 30 min and then harvested by scraping followed by centrifugation at 14,000 rpm for 10 min at 4 °C. Protein concentrations were determined using the Pierce BCA protein assay (Thermo) following the manufacturer’s recommended procedure. Equal amounts of protein (10 µg) were analyzed by SDS-PAGE and transferred to Immobilon-FL PVDF membranes (Merck Millipore) using Pierce 1-step transfer buffer (Thermo) and the Pierce Power Blotter (Thermo). Membranes were washed with ddH2O for 5 min, blocked with OdysseyBlocking Buffer TBS (Li-Cor) for 1 hr at room temperature and then incubated with primary antibodies diluted in OdysseyBlocking Buffer TBS overnight at 4 °C with gentle agitation. KRas (Sigma Aldrich, SAB1404011-100UG), pcRafS338 (CST, 9427), tAkt1 (CST, 2938), pAktS473 (CST, 4060), tErk (CST, 4696), pErkT202/Y204 (CST, 4370), pS6S235/236 (CST, 4858), and β-actin (CST, 4970/Sigma-Aldrich, A5441) antibodies were used to detect the individual proteins. After primary antibody incubation, membranes were washed three times with TBS-T (50 mM Tris, 150 mM NaCl, 0.05% Tween 20, pH 7.4) for 5 min before being incubated with secondary antibodies (anti-mouse IgG (H+L) (DyLight 680 Conjugate) (CST, 5470) / anti-rabbit IgG (H+L) (DyLight 800 4 X PEG Conjugate) (CST, 5151)) diluted in OdysseyBlocking Buffer TBS for 1 hr at room temperature with gentle agitation. After secondary antibody incubation, the membranes were washed three times for 5 min with TBS-T and then scanned using an OdysseyCLx imaging system (Li-Cor). Quantification of protein levels from western blots was performed using Empiria Studio (Li-Cor) (Figure 3B, C, Figure 3—figure supplements 6–9).

[2] = system: tAkt1; assay: as above; type: cell-based, human; conditions: for tAkt mean fold change: mean of cell lysates
Procedure: as §1, §2, §3

[3] = system: pErkT202/Y204; assay: as above; type: cell-based, human; conditions: for pErk mean fold change: mean of cell lysates
Procedure: as §1, §2, §3

[4] = system: pcRafS338; assay: as above; type: cell-based, human; conditions: for pcRaf mean fold change: mean of cell lysates
Procedure: as §1, §2, §3

[5] = system: pAktS473; assay: as above; type: cell-based, human; conditions: for pAkt mean fold change: mean of cell lysates
Procedure: as §1, §2, §3

[6] = system: tErk; assay: as above; type: cell-based, human; conditions: for tErk mean fold change: mean of cell lysates
Procedure: as §1, §2, §3

[7] = system: Ras pathway (pcRaf, pAkt, pErk, pS6); assay: Electroporation into HeLa cells, western blot of downstream signalling; type: cell-based, human; conditions: electroporation of 50-300 µg protein
Procedure: as §1, §2
After recovery of the electroporation, cells were washed twice with ice-cold PBS and lysed in 100 µL of phosphatase and protease inhibitor containing RIPA buffer (Cell Signaling Technology). Cells were incubated on ice for 30 min and then harvested by scraping followed by centrifugation at 14,000 rpm for 10 min at 4 °C. Protein concentrations were determined using the Pierce BCA protein assay (Thermo) following the manufacturer’s recommended procedure. Equal amounts of protein (10 µg) were analyzed by SDS-PAGE and transferred to Immobilon-FL PVDF membranes (Merck Millipore) using Pierce 1-step transfer buffer (Thermo) and the Pierce Power Blotter (Thermo). Membranes were washed with ddH2O for 5 min, blocked with OdysseyBlocking Buffer TBS (Li-Cor) for 1 hr at room temperature and then incubated with primary antibodies diluted in OdysseyBlocking Buffer TBS overnight at 4 °C with gentle agitation. […] Quantification of protein levels from western blots was performed using Empiria Studio (Li-Cor) (Figure 3B, C, Figure 3—figure supplements 6–9).

[8] = system: SOS; assay: Guanine nucleotide-exchange factor assay (mantdGDP fluorescence); type: biochemical; conditions: 5 µM KRas1-169, 10 µM mantdGDP, 0.25 or 0.5 µM SOS
Procedure: SOS-catalysed nucleotide exchange was monitored at 25 °C in a FluoroMax-3 spectrofluorometer (excitation at 360 nm, emission at 440 nm) in 20 mM HEPES (pH 7.5), 100 mM NaCl, 2 mM MgCl2, and 1 mM TCEP. 5 µM KRas1-169 was mixed with 10 µM mantdGDP and subsequently with different concentrations of SOS (0.25 µM and 0.5 µM) (Figure 3A; Figure 3—figure supplement 1).

[9] = target: KRas; design: method as in Jeganathan et al., 2018; conditions: reversible affinity; ref Jeganathan et al., 2018; cited from earlier work

Molecule: KRasG13C:acetyledaGDP: KRasG13C non-covalently loaded with acetyledaGDP, control
- pS6 fold change ([1]; 50 µg, Cell lysate 1): 1.20
- pS6 fold change ([1]; 50 µg, Cell lysate 2): 4.69
- pS6 fold change ([1]; 50 µg, Cell lysate 3): 4.24
- pS6 mean fold change ([1]; 50 µg): 3.38
- pS6 fold change ([1]; 100 µg, Cell lysate 1): 1.62
- pS6 fold change ([1]; 100 µg, Cell lysate 2): 7.62
- pS6 fold change ([1]; 100 µg, Cell lysate 3): 3.73
- pS6 mean fold change ([1]; 100 µg): 4.32
- pS6 fold change ([1]; 200 µg, Cell lysate 1): 3.38
- pS6 fold change ([1]; 200 µg, Cell lysate 2): 9.20
- pS6 fold change ([1]; 200 µg, Cell lysate 3): 7.24
- pS6 mean fold change ([1]; 200 µg): 6.61
- pS6 fold change ([1]; 300 µg, Cell lysate 1): 2.82
- pS6 fold change ([1]; 300 µg, Cell lysate 2): 9.13
- pS6 fold change ([1]; 300 µg, Cell lysate 3): 7.42
- pS6 mean fold change ([1]; 300 µg): 6.46
- tAkt fold change ([2]; 50 µg, Cell lysate 1): 0.92
- tAkt fold change ([2]; 50 µg, Cell lysate 2): 2.42
- tAkt fold change ([2]; 50 µg, Cell lysate 3): 1.53
- tAkt mean fold change ([2]; 50 µg): 1.62
- tAkt fold change ([2]; 100 µg, Cell lysate 1): 1.23
- tAkt fold change ([2]; 100 µg, Cell lysate 2): 2.03
- tAkt fold change ([2]; 100 µg, Cell lysate 3): 1.95
- tAkt mean fold change ([2]; 100 µg): 1.74
- tAkt fold change ([2]; 200 µg, Cell lysate 1): 1.36
- tAkt fold change ([2]; 200 µg, Cell lysate 2): 3.63
- tAkt fold change ([2]; 200 µg, Cell lysate 3): 1.80
- tAkt mean fold change ([2]; 200 µg): 2.26
- tAkt fold change ([2]; 300 µg, Cell lysate 1): 0.81
- tAkt fold change ([2]; 300 µg, Cell lysate 2): 4.18
- tAkt fold change ([2]; 300 µg, Cell lysate 3): 2.17
- tAkt mean fold change ([2]; 300 µg): 2.39
- pErk fold change ([3]; 50 µg, Cell lysate 1): 3.76
- pErk fold change ([3]; 50 µg, Cell lysate 2): 14.50
- pErk fold change ([3]; 50 µg, Cell lysate 3): 5.88
- pErk mean fold change ([3]; 50 µg): 8.05
- pErk fold change ([3]; 100 µg, Cell lysate 1): 5.77
- pErk fold change ([3]; 100 µg, Cell lysate 2): 17.10
- pErk fold change ([3]; 100 µg, Cell lysate 3): 6.22
- pErk mean fold change ([3]; 100 µg): 9.70
- pErk fold change ([3]; 200 µg, Cell lysate 1): 14.00
- pErk fold change ([3]; 200 µg, Cell lysate 2): 22.30
- pErk fold change ([3]; 200 µg, Cell lysate 3): 9.35
- pErk mean fold change ([3]; 200 µg): 15.22
- pErk fold change ([3]; 300 µg, Cell lysate 1): 17.00
- pErk fold change ([3]; 300 µg, Cell lysate 2): 29.30
- pErk fold change ([3]; 300 µg, Cell lysate 3): 10.30
- pErk mean fold change ([3]; 300 µg): 18.87
- pcRaf fold change ([4]; 50 µg, Cell lysate 1): 8.73
- pcRaf fold change ([4]; 50 µg, Cell lysate 2): 1.10
- pcRaf fold change ([4]; 50 µg, Cell lysate 3): 15.70
- pcRaf mean fold change ([4]; 50 µg): 8.51
- pcRaf fold change ([4]; 100 µg, Cell lysate 1): 8.39
- pcRaf fold change ([4]; 100 µg, Cell lysate 2): 1.51
- pcRaf fold change ([4]; 100 µg, Cell lysate 3): 22.70
- pcRaf mean fold change ([4]; 100 µg): 10.87
- pcRaf fold change ([4]; 200 µg, Cell lysate 1): 13.70
- pcRaf fold change ([4]; 200 µg, Cell lysate 2): 2.17
- pcRaf fold change ([4]; 200 µg, Cell lysate 3): 32.40
- pcRaf mean fold change ([4]; 200 µg): 16.09
- pcRaf fold change ([4]; 300 µg, Cell lysate 1): 10.10
- pcRaf fold change ([4]; 300 µg, Cell lysate 2): 3.88
- pcRaf fold change ([4]; 300 µg, Cell lysate 3): 30.30
- pcRaf mean fold change ([4]; 300 µg): 14.76
- pAkt fold change ([5]; 50 µg, Cell lysate 1): 0.68
- pAkt fold change ([5]; 50 µg, Cell lysate 2): 2.89
- pAkt fold change ([5]; 50 µg, Cell lysate 3): 3.02
- pAkt mean fold change ([5]; 50 µg): 2.20
- pAkt fold change ([5]; 100 µg, Cell lysate 1): 0.79
- pAkt fold change ([5]; 100 µg, Cell lysate 2): 4.04
- pAkt fold change ([5]; 100 µg, Cell lysate 3): 4.42
- pAkt mean fold change ([5]; 100 µg): 3.08
- pAkt fold change ([5]; 200 µg, Cell lysate 1): 1.19
- pAkt fold change ([5]; 200 µg, Cell lysate 2): 9.05
- pAkt fold change ([5]; 200 µg, Cell lysate 3): 6.20
- pAkt mean fold change ([5]; 200 µg): 5.48
- pAkt fold change ([5]; 300 µg, Cell lysate 1): 2.16
- pAkt fold change ([5]; 300 µg, Cell lysate 2): 13.30
- pAkt fold change ([5]; 300 µg, Cell lysate 3): 3.81
- pAkt mean fold change ([5]; 300 µg): 6.42
- tErk fold change ([6]; 50 µg, Cell lysate 1): 0.88
- tErk fold change ([6]; 50 µg, Cell lysate 2): 0.96
- tErk fold change ([6]; 50 µg, Cell lysate 3): 0.92
- tErk mean fold change ([6]; 50 µg): 0.92
- tErk fold change ([6]; 100 µg, Cell lysate 1): 0.68
- tErk fold change ([6]; 100 µg, Cell lysate 2): 0.93
- tErk fold change ([6]; 100 µg, Cell lysate 3): 0.86
- tErk mean fold change ([6]; 100 µg): 0.82
- tErk fold change ([6]; 200 µg, Cell lysate 1): 0.80
- tErk fold change ([6]; 200 µg, Cell lysate 2): 0.93
- tErk fold change ([6]; 200 µg, Cell lysate 3): 0.97
- tErk mean fold change ([6]; 200 µg): 0.90
- tErk fold change ([6]; 300 µg, Cell lysate 1): 0.62
- tErk fold change ([6]; 300 µg, Cell lysate 2): 0.90
- tErk fold change ([6]; 300 µg, Cell lysate 3): 1.12
- tErk mean fold change ([6]; 300 µg): 0.88
- downstream signalling (pcRaf, pAkt, pErk, pS6) [7]: activation of the Ras pathway comparable to KRasG13C was observed
- SOS-catalysed nucleotide exchange [8]: efficiently catalysed nucleotide exchange

Molecule: Nc1nc2c(ncn2[C@@H]2O[C@H](COP(=O)(O)OP(=O)(O)OCCNC(=O)CCl)[C@@H](O)[C@H]2O)c(=O)[nH]1 [SML-8-73-1]
- Kd [9]: ~140 nM

Source: paper PMC10042540, “Targeting oncogenic KRasG13C with nucleotide-based covalent inhibitors” (eLife, 2023)
